Earlier results on one compound are cited in patent US9248196B2, “Rebamipide complexes and cocrystals” (NUFORMIX LIMITED, priority 2011, dated 2016).

Read-outs that look alike come from different tables or passages of the source.

For the compound `O=C(NC(Cc1cc(=O)[nH]c2ccccc12)C(=O)O)c1ccc(Cl)cc1` (stereo not drawn) [Rebamipide, 2-(4-chlorobenzamido)-3-(2-oxo-1,2-dihydroquinolin-4-yl)propanoic acid], the solubility result is, setting by setting: (in ethanol) “very slightly soluble”; (in methanol) “very slightly soluble”; (in water) “practically insoluble”.
